The source made the active and inactive calls. No rule for the calls is given here.
Biological target: N-formyl peptide receptor 2 (Homo sapiens) (UniProt P25090)
Experiment: human FPR2 ligand displacement potency – cell-based, flow cytometry, Ki from IC50, selectivity assay for FPR1 ligand SAR project, dose response (AID 723)
Conditions: FPRL1-expressing cells, fluorescent ligand binding competition; for Ki: measured here: Ki from IC50

Sequence of N-formyl peptide receptor 2 (Homo sapiens) (P25090 whole entry, looked up): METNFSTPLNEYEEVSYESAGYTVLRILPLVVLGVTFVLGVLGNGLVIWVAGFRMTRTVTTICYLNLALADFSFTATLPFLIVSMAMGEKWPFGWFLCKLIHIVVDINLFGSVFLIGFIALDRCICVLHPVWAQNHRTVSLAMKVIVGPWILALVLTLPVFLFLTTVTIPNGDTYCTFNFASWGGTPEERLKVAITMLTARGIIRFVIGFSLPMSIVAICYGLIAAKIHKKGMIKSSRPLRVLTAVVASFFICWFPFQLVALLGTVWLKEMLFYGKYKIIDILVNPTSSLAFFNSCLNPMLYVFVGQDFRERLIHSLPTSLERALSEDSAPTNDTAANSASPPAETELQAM

Structure (SMILES) | IC50 | Ki [µM]
Cc1ccc(N2C(=O)C(=O)/C(=C(\O)c3ccccc3)C2c2cccc(F)c2)cc1Br (stereo not drawn) | > 66.7 µM (inactive) | > 40.3
COc1cc(C2C(C(C)=O)=C(O)C(=O)N2c2ccc(Br)cc2)ccc1O (stereo not drawn) | > 66.7 µM (inactive) | > 40.3
COc1cc(C2C(C(=O)c3cc4ccccc4o3)=C(O)C(=O)N2CCN(C)C)ccc1O (stereo not drawn) | > 66.7 µM (inactive) | > 40.3
COCCCN1C(=O)C(=O)/C(=C(/O)c2ccccc2)C1c1ccc(O)c(OC)c1 (stereo not drawn) | > 66.7 µM (inactive) | > 40.3
CCc1cc2c(=O)c(-c3nc4ccccc4n3C)c(C)oc2cc1OC(C)=O | – | > 40.3
O=C(C1=C(O)C(=O)N(CCCN2CCOCC2)C1c1cccnc1)c1cc2ccccc2o1 (stereo not drawn) | > 66.7 µM (inactive) | > 40.3
CC(=O)C1=C(O)C(=O)N(CCc2c(C)[nH]c3ccccc23)C1c1cccc(F)c1 (stereo not drawn) | > 66.7 µM (inactive) | > 40.3
Cc1cccc(C2CC(=O)NC3=C2C(=O)CC(c2cccs2)C3)c1 (stereo not drawn) | – | > 40.3
O=C(O)CCCN1C(=O)C(=O)/C(=C(/O)c2ccccc2)C1/C=C/c1ccccc1 (stereo not drawn) | > 66.7 µM (inactive) | > 40.3
COc1ccc(/C(O)=C2/C(=O)C(=O)NC2c2ccc(OC)cc2OC)cc1 (stereo not drawn) | > 66.7 µM (inactive) | > 40.3
COc1ccc(C2C(C(=O)N3CCCC(C)C3)c3ccccc3C(=O)N2C)cc1 (stereo not drawn) | – | > 40.3
COc1ccc(-c2c(C(F)(F)F)oc3cc(OC(=O)c4cccnc4)ccc3c2=O)cc1OC | – | > 40.3
Cc1ccc(/C(O)=C2\C(=O)C(=O)N(c3nnc(C)s3)C2c2ccc(C(C)C)cc2)cc1 (stereo not drawn) | > 66.7 µM (inactive) | > 40.3
CC(C)c1ccc(C2/C(=C(\O)c3ccccc3)C(=O)C(=O)N2Cc2cccnc2)cc1 (stereo not drawn) | > 66.7 µM (inactive) | > 40.3
O=C(Oc1ccc2c(=O)c(Oc3ccccc3Br)c(C(F)(F)F)oc2c1)c1cccs1 | – | > 40.3
COCCN1C(=O)C(=O)/C(=C(/O)c2ccccc2)C1c1cc(OC)ccc1OC (stereo not drawn) | > 66.7 µM (inactive) | > 40.3
CCCCCCOc1cccc(N2C(=O)C(=O)/C(=C(\O)c3ccccc3)C2c2cccc(F)c2)c1 (stereo not drawn) | > 66.7 µM (inactive) | > 40.3
O=C(Oc1ccc2c(=O)c(-c3ccccc3Cl)c(C(F)(F)F)oc2c1)c1cccs1 | – | > 40.3
O=C1CC(c2ccccc2C(F)(F)F)C2=C(CC(c3cccs3)CC2=O)N1 (stereo not drawn) | – | > 40.3
CCC(C)(C(=O)NC1CCCCC1)N(Cc1cccs1)C(C)=O (stereo not drawn) | – | > 40.3
COc1ccc(C2C(C(=O)c3cc4ccccc4o3)=C(O)C(=O)N2CCN(C)C)cc1OC (stereo not drawn) | > 66.7 µM (inactive) | > 40.3
COc1ccc(C2C(C(=O)c3ccco3)=C(O)C(=O)N2CCN2CCOCC2)c(OC)c1 (stereo not drawn) | > 66.7 µM (inactive) | > 40.3
COc1ccc(/C(O)=C2/C(=O)C(=O)N(CCc3c[nH]c4ccccc34)C2c2ccc(C(C)C)cc2)cc1 (stereo not drawn) | > 66.7 µM (inactive) | > 40.3
O=C1C(=O)N(CN2CCOCC2)C(c2ccc(Br)cc2)/C1=C(\O)c1ccccc1 (stereo not drawn) | > 66.7 µM (inactive) | > 40.3
COc1ccc(-c2c(C(F)(F)F)oc3cc(OC(=O)c4ccco4)ccc3c2=O)cc1OC | – | > 40.3

The remaining lines, values ahead:

IC50 | Ki [µM] | Structure (SMILES)
> 66.7 µM (inactive) | > 40.3 | COc1ccc(OC)c(C2/C(=C(\O)c3ccccc3)C(=O)C(=O)N2c2cccnc2)c1 (stereo not drawn)
– | > 40.3 | COc1ccc(-c2c(C)[nH]n3c(=O)c4c(nc23)CCCC4)cc1
> 66.7 µM (inactive) | > 40.3 | CCCCCCN1C(=O)C(=O)/C(=C(\O)c2ccccc2)C1c1ccc(O)c(OC)c1 (stereo not drawn)
– | > 40.3 | O=C(O)C1CCCCC1C(=O)Nc1ccc(Br)cc1 (stereo not drawn)
> 66.7 µM (inactive) | > 40.3 | O=C(C1=C(O)C(=O)N(CCc2ccccc2)C1c1ccc(Cl)cc1)c1cccs1 (stereo not drawn)
– | > 40.3 | COc1ccc(OC)c(CNC(=O)Cn2c(=O)sc3ccccc32)c1
> 66.7 µM (inactive) | > 40.3 | COCCCN1C(=O)C(=O)/C(=C(/O)c2ccccc2)C1c1ccc(C(C)C)cc1 (stereo not drawn)
> 66.7 µM (inactive) | > 40.3 | COc1ccc(OC)c(C2/C(=C(\O)c3ccccc3)C(=O)C(=O)N2c2ccc(C)c(Cl)c2)c1 (stereo not drawn)
> 66.7 µM (inactive) | > 40.3 | COCCN1C(=O)C(=O)/C(=C(/O)c2ccccc2)C1c1ccccc1OC (stereo not drawn)
> 66.7 µM (inactive) | > 40.3 | O=C1C(=O)N(c2ccc(F)cc2)C(c2ccc(Br)cc2)/C1=C(/O)c1ccccc1 (stereo not drawn)
– | > 40.3 | COc1cccc(/C=C2/C(=O)NN(c3ccc(C)cc3)C2=O)c1
– | > 40.3 | CCCC(=O)N(Cc1ccco1)S(=O)(=O)c1cccc2cccnc12
> 66.7 µM (inactive) | > 40.3 | COc1ccc(C2/C(=C(\O)c3ccc(C)cc3)C(=O)C(=O)N2Cc2cccnc2)c(OC)c1 (stereo not drawn)
> 66.7 µM (inactive) | > 40.3 | COCCN1C(=O)C(=O)/C(=C(/O)c2ccccc2)C1c1ccc(C(C)C)cc1 (stereo not drawn)
> 66.7 µM (inactive) | > 40.3 | Cc1ccc(/C(O)=C2\C(=O)C(=O)N(Cc3cccnc3)C2c2ccc(Br)cc2)cc1 (stereo not drawn)
> 66.7 µM (inactive) | > 40.3 | O=C1NC(c2ccc(Br)cc2)/C(=C(\O)c2ccc(Cl)cc2)C1=O (stereo not drawn)

IC50 | Ki [µM] | Structure (SMILES)
> 66.7 µM (inactive) | > 40.3 | COc1ccc(C2C(C(=O)c3cccs3)=C(O)C(=O)N2CCN2CCOCC2)c(OC)c1 (stereo not drawn)
– | > 40.3 | COc1ccccc1-c1c(C(F)(F)F)oc2cc(OC(=O)c3ccco3)ccc2c1=O
– | > 40.3 | Cc1sc2c(c1C)c(=O)n(Cc1ccccc1)c(=O)n2Cc1ccccc1F
> 66.7 µM (inactive) | > 40.3 | COc1ccc(OC)c(C2/C(=C(\O)c3ccc(C)cc3)C(=O)C(=O)N2CCC(=O)O)c1 (stereo not drawn)
– | > 40.3 | COc1cccc(-c2ccnc3[nH]n(-c4ccccc4)c(=O)c23)c1
> 66.7 µM (inactive) | > 40.3 | O=C(C1=C(O)C(=O)N(CCCn2ccnc2)C1c1cccnc1)c1cc2ccccc2o1 (stereo not drawn)
– | > 40.3 | CC(C)C(=O)N(Cc1ccco1)S(=O)(=O)c1cccc2cccnc12
> 66.7 µM (inactive) | > 40.3 | O=C(C1=C(O)C(=O)N(CCCn2ccnc2)C1c1cccnc1)c1ccco1 (stereo not drawn)
– | > 40.3 | Cc1cccc(C)c1NC(=O)C(NC(=O)Cc1cccs1)c1ccccc1 (stereo not drawn)
> 66.7 µM (inactive) | > 40.3 | N#Cc1c(N/C(=C\C(=O)c2ccccc2)C(=O)O)sc2c1CCC2
> 66.7 µM (inactive) | > 40.3 | COc1ccc(C2/C(=C(\O)c3ccccc3)C(=O)C(=O)N2CCCn2ccnc2)c(OC)c1 (stereo not drawn)
– | > 40.3 | Cc1nc2c(-c3ccc(Cl)cc3)c(C(F)(F)F)[nH]n2c(=O)c1Cc1ccccc1
– | > 40.3 | COc1ccc(-c2c(C(F)(F)F)oc3c(CN4CCOCC4)c(O)ccc3c2=O)cc1OC
> 66.7 µM (inactive) | > 40.3 | COc1ccc(C2/C(=C(\O)c3ccccc3)C(=O)C(=O)N2c2cccc(Cl)c2)c(OC)c1 (stereo not drawn)
> 66.7 µM (inactive) | > 40.3 | COc1ccc(C2C(C(=O)c3cccs3)=C(O)C(=O)N2CCCn2ccnc2)cc1 (stereo not drawn)
> 66.7 µM (inactive) | > 40.3 | COc1ccc(C2C(C(=O)c3ccco3)=C(O)C(=O)N2CCCN2CCOCC2)cc1OC (stereo not drawn)
